Experimental data as given in PubChem BioAssay (NCI).
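Method: 48-hour compound exposure of cells in 96-well plates, five concentrations, linear interpolation of endpoints. GI50 is the concentration that inhibits growth by half. TGI marks complete inhibition of growth.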

How the values were obtained:
Test in all cases: NCI anticancer screen, dose series, 48 h
[1] = system: NCI-H23 lung
[2] = system: SNB-75 CNS
[3] = system: IGROV1 ovarian
[4] = system: OVCAR-8 ovarian
[5] = system: COLO 205 colon
[6] = system: MOLT-4 leukemia
[7] = system: NCI-H522 lung
[8] = system: SK-MEL-5 melanoma
[9] = system: MDA-MB-231 breast
[10] = system: DU-145 prostate
[11] = system: HOP-92 NSCLC
[12] = system: EKVX NSCLC
[13] = system: SF-295 CNS
[14] = system: NCI-H460 lung
[15] = system: LOX IMVI melanoma
[16] = system: CCRF-CEM leukemia
[17] = system: CAKI-1 renal
[18] = system: HL-60(TB) leukemia
[19] = system: KM12 colon
[20] = system: MDA-MB-435
[21] = system: HOP-62 NSCLC
[22] = system: SF-539 CNS
[23] = system: SNB-19 CNS
[24] = system: HCT-15 colon
[25] = system: HCT-116 colon
[26] = system: 786-0 renal
[27] = system: HT29 colon
[28] = system: RPMI-8226 leukemia
[29] = system: UACC-257 melanoma
[30] = system: PC-3 prostate
[31] = system: NCI-H226 lung
[32] = system: BT-549 breast
[33] = system: SN12C renal
[34] = system: K-562 leukemia
[35] = system: SK-MEL-2 melanoma
[36] = system: M14 melanoma
[37] = system: A498 renal
[38] = system: ACHN renal
[39] = system: RXF 393 renal
[40] = system: HS 578T breast
[41] = system: OVCAR-3 ovarian
[42] = system: OVCAR-4 ovarian
[43] = system: U251 CNS
[44] = system: SR leukemia
[45] = system: SK-OV-3 ovarian
[46] = system: UACC-62 melanoma
[47] = system: OVCAR-5 ovarian
[48] = system: T-47D breast
[49] = system: HCC-2998 colon
[50] = system: UO-31 renal
[51] = system: SF-268 CNS
[52] = system: SW-620 colon
[53] = system: MCF7 breast
[54] = system: SK-MEL-28 melanoma
[55] = system: NCI/ADR-RES ovarian
[56] = system: A549 NSCLC
[57] = system: MALME-3M melanoma
[58] = system: TK-10 renal
[59] = system: MDA-N

With Fc1cccc(COc2ccc(Nc3ncnc4cc(-c5ccc[nH]5)sc34)cc2Cl)c1 the GI50 [1] was 7.22 µM, the TGI [1] was over 25 µM and the GI50 [2] was 1.19 µM. It also gave a TGI [2] of 6.35 µM, a GI50 [3] of 0.406 µM and a TGI [3] of 11.7 µM. For the same molecule, the GI50 [4] was 3.38 µM, the TGI [4] was over 25 µM and the GI50 [5] was 5.47 µM. It also gave a TGI [5] of 17.5 µM, a GI50 [6] of 2.59 µM and a TGI [6] of over 25 µM. The GI50 [7] was 1.48 µM, the TGI [7] was over 7.14 µM and the GI50 [8] was 6.01 µM. It also gave a TGI [8] of over 25 µM, a GI50 [9] of 0.734 µM and a TGI [9] of over 15.7 µM. For the same molecule, the GI50 [10] was 3.34 µM, the TGI [10] was over 16.4 µM and the GI50 [11] was 0.31 µM. For the same molecule, the TGI [11] was 2.39 µM, the GI50 [12] was 0.323 µM and the TGI [12] was 3.75 µM. It also gave a GI50 [13] of 0.548 µM, a TGI [13] of over 19.9 µM and a GI50 [14] of 2.09 µM. The TGI [14] was over 15.3 µM, the GI50 [15] was 8.04 µM and the TGI [15] was over 22.4 µM. For the same molecule, the GI50 [16] was 0.44 µM, the TGI [16] was over 25 µM and the GI50 [17] was 0.681 µM. It also gave a TGI [17] of 6.89 µM, a GI50 [18] of 0.354 µM and a TGI [18] of 3.22 µM. It also gave a GI50 [19] of 0.156 µM, a TGI [19] of 5.54 µM and a GI50 [20] of 6.11 µM. For the same molecule, the TGI [20] was over 25 µM, the GI50 [21] was 3.01 µM and the TGI [21] was 8.52 µM. For the same molecule, the GI50 [22] was 0.931 µM, the TGI [22] was 4.81 µM and the GI50 [23] was 2.22 µM. For the same molecule, the TGI [23] was over 25 µM, the GI50 [24] was 0.264 µM and the TGI [24] was over 13 µM. For the same molecule, the GI50 [25] was 7.46 µM, the TGI [25] was over 25 µM and the GI50 [26] was 1.22 µM. It also gave a TGI [26] of 5.32 µM, a GI50 [27] of 7.47 µM and a TGI [27] of over 20.6 µM. The GI50 [28] was 0.133 µM, the TGI [28] was over 15.9 µM and the GI50 [29] was 9.38 µM. It also gave a TGI [29] of over 25 µM, a GI50 [30] of 0.77 µM and a TGI [30] of over 15.7 µM. The GI50 [31] was 1.7 µM, the TGI [31] was over 16.8 µM and the GI50 [32] was 0.977 µM. The TGI [32] was 14.9 µM, the GI50 [33] was 1.42 µM and the TGI [33] was over 25 µM. It also gave a GI50 [34] of 10.7 µM, a TGI [34] of over 25 µM and a GI50 [35] of 6.77 µM. It also gave a TGI [35] of over 25 µM, a GI50 [36] of 8.32 µM and a TGI [36] of over 23.4 µM. It also gave a GI50 [37] of 2.27 µM, a TGI [37] of over 17.7 µM and a GI50 [38] of 2.68 µM. For the same molecule, the TGI [38] was over 16.8 µM, the GI50 [39] was 2.17 µM and the TGI [39] was 6.62 µM. For the same molecule, the GI50 [40] was 4.53 µM, the TGI [40] was 21.2 µM and the GI50 [41] was 0.151 µM. It also gave a TGI [41] of 2.99 µM, a GI50 [42] of 0.0847 µM and a TGI [42] of 3.84 µM. The GI50 [43] was 3.51 µM, the TGI [43] was 17.5 µM and the GI50 [44] was 13.6 µM. It also gave a TGI [44] of over 25 µM, a GI50 [45] of 2.41 µM and a TGI [45] of 20.1 µM. For the same molecule, the GI50 [46] was 5.77 µM, the TGI [46] was over 22.8 µM and the GI50 [47] was 2.22 µM. For the same molecule, the TGI [47] was 24.9 µM, the GI50 [48] was 0.0977 µM and the TGI [48] was 7.35 µM. It also gave a GI50 [49] of 0.246 µM, a TGI [49] of 19.2 µM and a GI50 [50] of 0.245 µM. For the same molecule, the TGI [50] was 2.52 µM, the GI50 [51] was 1.46 µM and the TGI [51] was over 14.7 µM. For the same molecule, the GI50 [52] was 8.56 µM, the TGI [52] was over 25 µM and the GI50 [53] was 0.0802 µM. The TGI [53] was 2.76 µM, the GI50 [54] was 7.96 µM and the TGI [54] was over 25 µM. It also gave a GI50 [55] of 3.29 µM, a TGI [55] of over 25 µM and a GI50 [56] of 0.789 µM. The TGI [56] was 4.8 µM, the GI50 [57] was 2.65 µM and the TGI [57] was 14.6 µM. The GI50 [58] was 0.482 µM and the TGI [58] was 2.64 µM.
Molecule C(=C\C(SCc1ccccc1)SCc1ccccc1)/c1ccccc1 has a TGI [1] of over 10 µM, a TGI [2] of over 10 µM and a TGI [59] of over 10 µM. The TGI [3] was over 10 µM, the TGI [4] was over 10 µM and the TGI [5] was over 10 µM. It also gave a TGI [6] of over 10 µM, a TGI [7] of over 10 µM and a TGI [8] of over 10 µM. The TGI [9] was over 10 µM, the TGI [10] was over 10 µM and the TGI [11] was over 10 µM. For the same molecule, the TGI [12] was over 10 µM, the TGI [13] was over 10 µM and the TGI [14] was over 10 µM. For the same molecule, the TGI [15] was over 10 µM, the TGI [16] was over 10 µM and the TGI [17] was over 10 µM. It also gave a TGI [18] of over 10 µM, a TGI [19] of over 10 µM and a TGI [21] of over 10 µM. For the same molecule, the TGI [22] was over 10 µM, the TGI [23] was over 10 µM and the TGI [24] was over 10 µM. It also gave a TGI [25] of over 10 µM, a TGI [26] of over 10 µM and a TGI [27] of over 10 µM. The TGI [28] was over 10 µM, the TGI [29] was over 10 µM and the TGI [30] was over 10 µM. For the same molecule, the TGI [31] was over 10 µM, the TGI [33] was over 10 µM and the TGI [34] was over 10 µM. It also gave a TGI [35] of over 10 µM, a TGI [36] of over 10 µM and a TGI [37] of over 10 µM. For the same molecule, the TGI [38] was over 10 µM, the TGI [39] was over 10 µM and the TGI [40] was over 10 µM. It also gave a TGI [41] of over 10 µM, a TGI [42] of over 10 µM and a TGI [43] of over 10 µM. For the same molecule, the TGI [44] was over 10 µM, the TGI [45] was over 10 µM and the TGI [46] was over 10 µM. For the same molecule, the TGI [48] was over 10 µM, the TGI [49] was over 10 µM and the TGI [50] was over 10 µM. The TGI [51] was over 10 µM, the TGI [52] was over 10 µM and the TGI [53] was over 10 µM. The TGI [54] was over 10 µM, the TGI [55] was over 10 µM and the TGI [56] was over 10 µM. It also gave a TGI [57] of over 10 µM and a TGI [58] of over 10 µM.
